# How the values were obtained:
# [1] = Metabolite ID study, rabbit hepatocytes; type: in vitro ADME; settings: 10 uM compound 9, T=60 min
# Description: (§1) Animal Studies: Compound 9 was tested using six species hepatocytes in a metabolite ID study (T=60 min).
# (§2) Cryopreserved hepatocytes from a selected species were thawed and incubated in duplicate with 10 uM compound 9 in Krebs-Henseleit buffer. […] Viability of hepatocytes was >70% after thawing.
# (§3) (Eppendorf 5804R). […] The disappearance of the parent compound was determined, and the formation of metabolites was evaluated. Metabolites present at >1% of total compound related material (based on peak area) were identified by interpretation of the LC-MS/MS data.
# (§4) MS settings were optimized for the flow rate. Full scan spectra were acquired in combination with data dependent MS2.
# (§5) The spectra obtained from all samples were screened for the presence of m/z values that are absent in the blank incubations (incubations with hepatocytes without compound and with vehicle control, and incubations of compound in buffer without hepatocytes). T=60 min incubations were used as an initial screening. All possible metabolites observed were semi-quantified by MS response (peak area). MS2 spectra were interpreted to determine possible location of the metabolism reaction. The presence of metabolites identified was compared across the selected species.
# A549 (KRAS-G12S) pERK = assay: Cell-based pERK dose response study, A549
# Description: Materials and Methods: A549 or A375 cells were seeded in 6-well plates at an appropriate seeding density on day 0. On day 2 or 3, after checking the health and confluency of cells, the media was aspirated and replaced with 1 mL media containing a predetermined concentration of compound and incubated for 2 hours. After 2 hours, the media was aspirated, and the cells washed 2 times with cold PBS. Cells were lysed on ice, with 50 uL 1×CST lysis buffer+1 mM PMSF for 5 minutes. After 5 minutes, cells were removed using a scraper and transferred to cold 1.5 mL tubes, and centrifuged for 10 min, 4° C., 14,000×g. Supernatant was gently removed and snap frozen in liquid nitrogen. Protein concentration of the lysate was determined using Bradford Reagent (analyzed using SpectraMax M2E) and diluted to 1 mg/mL or pERK or 1.5 mg/mL for pMEK analysis. […] All dilutions were in Milk-free antibody diluent.
# [2] = Metabolite ID study, rat hepatocytes; type: in vitro ADME; settings: 10 uM compound 9, T=60 min
# Description: as §1, §2, §3, §4, §5
# [3] = Single dose PK profile (plasma and tumor) in Colon26 tumor bearing mice; type: in vivo; settings: female, mouse
# Description: Female mice (either athymic BALC/c nude, or BALB/c mice) were inoculated with a single subcutaneous injection of 0.1 ml of mouse Colon-26 cell suspension (1×10^5 cells per animal) in the right flank region. Colon26 (C26) tumor bearing mice received a single dose (3-4 mice/treatment) of vehicle (10% DMSO/90% [20% SBE-B-CD in saline], pH 5) containing compounds at indicated dose by gavage (p.o.) or intravenous administration (i.v.) and at various time points (0.16, 0.5, 1, 2, 4, 8, 12, 16, 24-hour) post dose humanely euthanized. Blood was obtained through cardiac puncture into K+EDTA tubes, mixed by inversion and centrifuged to obtain the plasma. Tissues were excised, cleaned of surrounding tissues. All samples immediately snap frozen in liquid N2 prior to LC-MS/MS analysis (using Agilent Poroshell-120 EC-C18 (4.0 μm) 2.1×50 mm, and a Water+API-4000 Electrospray MS unit). The results of this study are illustrated in FIGS. 16, and 17. Tables 11 describes a single does PK profile (plasma) and Table 12 describes a single dose PK profile (tumor).
# hERG Channel = hERG Channel (Homo sapiens, UniProt Q12809); assay: in vitro
# [4] = Mouse liver microsome stability (t1/2, Clint); type: in vitro ADME; settings: liver microsomes, pH 7.4, 0.5 mg/ml microsomal protein
# Description: (Eppendorf 5804R). […] The disappearance of the parent compound was determined.
# [5] = Metabolite ID study, dog hepatocytes; type: in vitro ADME; settings: 10 uM compound 9, T=60 min
# Description: as §1, §2, §3, §4, §5
# [6] = athymic BALB/c nude or BALB/c, iv, 25 mg/kg, plasma, 25 mpk i.v.
# [7] = athymic BALB/c nude or BALB/c, po, 25 mg/kg, plasma, 25 mpk p.o.
# [8] = athymic BALB/c nude or BALB/c, po, 100 mg/kg, plasma, 100 mpk p.o.
# [9] = iv, 25 mg/kg, plasma, 25 mpk i.v.
# [10] = iv, 25 mg/kg, tumor, 25 mpk i.v.
# [11] = po, 25 mg/kg, plasma, 25 mpk p.o.
# [12] = po, 25 mg/kg, tumor, 25 mpk p.o.
# [13] = po, 100 mg/kg, plasma, 100 mpk p.o.
# [14] = po, 100 mg/kg, tumor, 100 mpk p.o.
# Chain of hERG Channel (Q12809 whole entry): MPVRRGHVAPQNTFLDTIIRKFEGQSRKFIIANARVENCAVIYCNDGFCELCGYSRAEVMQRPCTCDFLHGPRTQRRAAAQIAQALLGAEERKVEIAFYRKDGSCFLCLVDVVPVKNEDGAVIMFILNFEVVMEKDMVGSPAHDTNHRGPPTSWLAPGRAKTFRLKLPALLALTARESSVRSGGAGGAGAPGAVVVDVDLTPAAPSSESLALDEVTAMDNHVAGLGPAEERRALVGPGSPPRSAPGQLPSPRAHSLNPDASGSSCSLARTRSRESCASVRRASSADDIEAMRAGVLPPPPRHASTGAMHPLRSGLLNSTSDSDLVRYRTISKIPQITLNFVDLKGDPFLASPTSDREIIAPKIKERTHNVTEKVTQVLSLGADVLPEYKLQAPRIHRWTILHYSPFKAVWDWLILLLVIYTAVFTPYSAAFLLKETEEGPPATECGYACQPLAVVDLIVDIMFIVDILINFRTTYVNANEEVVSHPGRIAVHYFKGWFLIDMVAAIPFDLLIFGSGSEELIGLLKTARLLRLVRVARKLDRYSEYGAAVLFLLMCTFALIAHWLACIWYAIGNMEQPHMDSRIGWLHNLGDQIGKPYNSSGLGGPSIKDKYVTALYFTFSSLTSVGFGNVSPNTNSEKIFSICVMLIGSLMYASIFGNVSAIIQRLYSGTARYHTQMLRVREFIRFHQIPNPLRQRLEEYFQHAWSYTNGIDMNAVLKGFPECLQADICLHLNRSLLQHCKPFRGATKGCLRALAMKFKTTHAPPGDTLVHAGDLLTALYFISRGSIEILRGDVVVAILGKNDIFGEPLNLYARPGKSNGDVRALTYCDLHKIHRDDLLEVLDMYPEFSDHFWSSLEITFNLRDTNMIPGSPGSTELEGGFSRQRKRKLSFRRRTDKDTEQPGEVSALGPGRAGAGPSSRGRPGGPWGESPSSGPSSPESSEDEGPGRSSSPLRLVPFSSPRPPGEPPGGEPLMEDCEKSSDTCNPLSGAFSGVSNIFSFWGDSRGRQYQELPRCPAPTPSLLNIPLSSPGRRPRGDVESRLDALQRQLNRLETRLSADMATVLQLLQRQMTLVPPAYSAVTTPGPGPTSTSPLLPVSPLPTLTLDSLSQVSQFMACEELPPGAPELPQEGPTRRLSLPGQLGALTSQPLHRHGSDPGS
structure (smiles),measurement,setting,value
CNS(=O)(=O)Nc1cccc(Cc2c(CN(C)C)c3ccc(OC(=O)N(C)C)cc3oc2=O)c1F [Compound 9],"% of total compound related material based on peak area, Rabbit",[1],93%
same,A549 pERK:tERK ratio [10 nM; 2 hr],"A549 (KRAS-G12S) pERK; 10 nM, 2 hr",0.62
same,IC50,"A549 (KRAS-G12S) pERK; Homo sapiens, A549, 12-point dose, 2 hours",0.0198 µM
same,"% of total compound related material based on peak area, Rat",[2],95%
same,Tmax,[3]; [6],30 min
same,half-life,[3]; [6],37.8 min
same,bioavailability,[3]; [7],75.6%
same,half-life,[3]; [7],79.2 min
same,bioavailability,[3]; [8],192%
same,half-life,[3]; [8],73.2 min
same,AUC(0-inf),[3]; [9],5810 ng·h/mL
same,AUC(0-t),[3]; [9],5810 ng·h/mL
same,Cmax,[3]; [9],6520 ng/mL
same,AUC(0-inf),[3]; [10],8290 ng·h/mL
same,AUC(0-t),[3]; [10],8280 ng·h/mL
same,Cmax,[3]; [10],7790 ng/mL
same,Tmax,[3]; [10],30 min
same,half-life,[3]; [10],208 min
same,AUC(0-inf),[3]; [11],4400 ng·h/mL
same,AUC(0-t),[3]; [11],4390 ng·h/mL
same,Cmax,[3]; [11],4640 ng/mL
same,Tmax,[3]; [11],30 min
same,AUC(0-inf),[3]; [12],4900 ng·h/mL
same,AUC(0-t),[3]; [12],4890 ng·h/mL
same,Cmax,[3]; [12],4580 ng/mL
same,Tmax,[3]; [12],30 min
same,bioavailability,[3]; [12],59.1%
same,half-life,[3]; [12],76.8 min
same,AUC(0-inf),[3]; [13],44600 ng·h/mL
same,AUC(0-t),[3]; [13],44500 ng·h/mL
same,Cmax,[3]; [13],30100 ng/mL
same,Tmax,[3]; [13],30 min
same,AUC(0-inf),[3]; [14],51700 ng·h/mL
same,AUC(0-t),[3]; [14],51700 ng·h/mL
same,Cmax,[3]; [14],30300 ng/mL
same,Tmax,[3]; [14],30 min
same,bioavailability,[3]; [14],156%
same,half-life,[3]; [14],118 min
same,IC50,hERG Channel,26.2 µM
same,half-life at 1 uM,[4],44 min
same,microsomal CLint at 1 uM,[4],32 µL/min/mg
same,"% of total compound related material based on peak area, Dog",[5],96%
